Measured values from a melting point compilation (Tetko et al.; mined from patent text by program, amines drawn as free bases though some values may be those of a salt).

Row | Structure (SMILES) | melting point [°C]
1 | Nc1cc(Cl)cc(C(=O)N[C@@H]2CN3CCC2CC3)c1OCc1cccc(I)c1 | 102 to 104
2 | O=C1NCCN1S(=O)(=O)c1ccc(F)cc1 | 183 to 185
3 | CC(C)(C)OC(=O)N1CCC(O)(CSC2=CC(=O)C(=O)c3ccccc32)CC1 | 156 to 157
4 | Cc1cc(C(O)(C(F)(F)F)C(F)(F)F)cc(C)c1OCCN | 167 to 169
5 | N#CC(C#N)=C1c2cc(N)c(Cl)cc2-c2cc(Cl)c(N)cc21 | 336 to 338
6 | CC(=O)Nc1nc(CO)c(Cl)s1 | 145 to 146
7 | O=C(CCCCCCCc1ccccc1)NNC(=O)c1ccc(O)cc1 | 150 to 152
8 | CC(C)c1nc2[nH]c(=O)[nH]c(=O)c2c(-c2ccc(F)cc2)c1/C=C/C=O | 255
9 | CCn1c(=O)c2c(nc(/C=C/c3ccc(OC)c(OC)c3)n2C)n(CC)c1=O | 190 to 191
10 | COc1cc(O)cc2oc(=O)cc(C)c12 | 261 to 263
11 | CCCCc1ncc(CC(NC(=O)CCc2ccccc2)C(=O)O)n1Cc1ccccc1Cl (configuration not stated) | 194 to 196
12 | Cc1c2c(nc3ccccc13)CCN(S(=O)(=O)c1ccc(Cl)cc1)CC2 | 189
13 | COc1ccccc(N(C)S(=O)(=O)c2ccc(C)cc2)c1=O | 94.5
14 | CN(C)CCCOc1ccc(-c2nnc(-c3ccc(Oc4ccccc4)cc3)o2)cc1 | 95
15 | COC(=O)c1cc(Cl)cc(N)c1O | 65 to 67
16 | CN1CCOc2nc(Cl)c(Cl)nc21 | 170 to 172
17 | O=C(Nc1cc(S(=O)(=O)NCCO)sc1Cl)c1cnn2c(C(F)(F)F)cc(-c3ccc(C(F)(F)F)cc3)nc12 | 191
18 | C=CCNc1nc(C=O)cs1 | 106 to 107
19 | CC(CCC(=O)NN1CCN(C)CC1)C1CC=C2C3=C(CCC21C)C1(C)CCC(O)C(C)(C)C1CC3 (configuration not stated) | 189 to 191
20 | NS(=O)(=O)c1cccc(NC(=O)c2cnn3c(C(F)(F)F)cc(-c4ccc(C(F)(F)F)c(OCC(F)(F)F)c4)nc23)c1 | 233

Row | Structure (SMILES) | melting point [°C]
21 | CN1CCN(c2cc([N+](=O)[O-])ccc2Br)CC1 | 100 to 103
22 | Cn1nc(Oc2ccc([N+](=O)[O-])c([N+](=O)[O-])c2)c(Br)c1C(F)(F)F | 152 to 153
23 | COC1C(OC(N)=O)CCC2(CO2)C1C1(C)OC1CC=C(C)C (configuration not stated) | 125 to 126
24 | CS(=O)(=O)c1ccc(-c2oc(CCCC(=O)O)nc2-c2ccc(F)cc2)cc1 | 140 to 141
25 | CCCCC(CC)C(=O)Nc1ccc2c(/C=C/C(=O)O)cn(Cc3ccc(C(=O)NS(=O)(=O)c4ccccc4)cc3OC)c2c1 (configuration not stated) | 200 to 201
26 | CCN(CC)C(=S)NC1C=C2c3cccc4c3c(cn4CC)CC2N(C)C1 (configuration not stated) | 108
27 | C#CCOc1cc(Cl)ccc1-n1c(=O)cc(C(F)(F)F)n(C)c1=O | 147 to 148
28 | Cc1nn([N+](=O)[O-])cc1-c1ncc([N+](=O)[O-])n1C | 148
29 | CCn1c2ccc(C(=O)CCCCl)cc2c2cc(C(=O)CCCCl)ccc21 | 106 to 108
30 | Cc1ccc(F)cc1NC(=O)c1cc([N+](=O)[O-])ccc1NC(=O)CF | 217 to 219
31 | CC(=O)OCCCN(C)CCCN(C)C(=O)[C@@H]1CCCN1S(=O)(=O)c1ccc(Cl)c(COc2cccc3c(-n4ccnc4)cc(C)nc23)c1Cl | 90
32 | COc1ccc(S(=O)(=O)c2ccc(C)nc2Nc2c(C)cc(C)cc2C)cc1 | 165 to 167
33 | CC(=O)N1CCc2ccc(S(=O)(=O)n3c(CCCC(=O)O)cc4cc(Cl)ccc43)cc2C1 | 95 to 97
34 | Cc1c(C)c(N2CCN(c3nncs3)CC2)c(C)c2c1OC(C)C2 (configuration not stated) | 203 to 205
35 | Cc1cc2cc(Cl)ccc2n1Cc1ccccc1 | 75 to 76
36 | CC1CN(c2cc3ccccc3c(=O)[nH]2)CC(C)N1 (configuration not stated) | 208 to 210
37 | Cc1oc(-c2ccccc2)nc1COc1ccc(CON=C(CCCCCCC(=O)O)c2ccccc2)cc1 | 88 to 89
38 | CCCc1nc(Cl)c(-c2ccc(C)cc2)c(NS(=O)(=O)c2ccc(C(C)(C)C)cc2)n1 | 138 to 139
39 | CC(O)c1ccc(C(O)(c2ccc3c(c2)c(-c2cccc(Cl)c2)cc(=O)n3C)c2cncn2C)cc1 (configuration not stated) | 181
40 | OC(c1ccc(Cl)cc1)(c1ccc(Cl)cc1)c1ccns1 | 118 to 120

Row | Structure (SMILES) | melting point [°C]
41 | COC(=O)C1CC(=O)C(CC(=O)O)C1C[N+](=O)[O-] (single isomer, unassigned; (-)) | 111 to 112
42 | COc1ccccc1-c1cccc(CC(NC(=O)c2c(Cl)cccc2Cl)C(=O)O)c1 (racemic) | 104
43 | CC(C)(C#N)Cc1ccccc1CC(C)(C)C#N | 76 to 80
44 | O=C(O)[C@@H](CCN1C(=O)c2ccccc2C1=O)Oc1c(Br)cc(-c2c3ccccc3c(Br)c3sc4ccccc4c23)cc1Br | 215 to 217
45 | Cc1c[nH]c2c([N+](=O)[O-])ccc(C)c2c1=O | 250 to 262
46 | C=CCc1c(C(C)C)nc(C(C)C)c(CO)c1-c1ccc(F)cc1 | 69 to 71
47 | O=[N+]([O-])c1n[nH]c(-c2ccc(C(F)F)c(C(SC(c3cc(-c4nc([N+](=O)[O-])n[nH]4)ccc3C(F)F)C(F)(F)F)C(F)(F)F)c2)n1 (configuration not stated) | 74 to 76
48 | Cc1ccc(-c2c(NS(=O)(=O)c3ccc(C(C)(C)C)cc3)ncnc2OCCOc2ccc(NC(=O)C(C)(C)C)cn2)cc1 | 140 to 141
49 | O=c1oc2cc(O)cc(O)c2c(O)c1C1=CCOc2oc3ccccc3c(=O)c21 | 254 to 256
50 | C=CC(=O)N1C(C)(C)CC(OC(=O)CCCC(C)(C)c2cc(OC)c(C(C)(C)CCCC(=O)OC3CC(C)(C)N(C(=O)C=C)C(C)(C)C3)cc2O)CC1(C)C | 50 to 52
51 | C[C@H](Nc1nc(C(N)=O)nc(Cl)c1-c1c(F)cc(F)cc1F)C(F)(F)F | 157 to 162
52 | Nc1ccc(OCCCCCC(=O)OCCOCCOC(=O)CCCCCOc2ccc(N)cc2)cc1 | 56 to 58
53 | Cc1c(I)c(=O)n(C)c(=O)n1C | 155 to 157
54 | CN1CCC(c2ccc(Oc3ccccc3)cc2)(C(C)(C)O)CC1 | 148
55 | Cc1ccc(S(=O)(=O)OCC2COc3cccc4[nH]c(=O)n2c34)cc1 (configuration not stated) | 140 to 142
56 | CCCc1nnc2c(=O)n(C)c3ccc(C(F)(F)F)cc3n12 | 257 to 258
57 | COc1ccc(C(N)=O)c(OC)c1-c1ccc(C[C@H](NC(=O)c2c(Cl)cccc2Cl)C(=O)O)cc1 | 227 to 228
58 | c1csc(-c2ncc(COc3ccc(CCCn4ccnc4)cc3)s2)c1 | 112 to 113

Other lines, results leading:

Row | melting point [°C] | Structure (SMILES)
59 | 143 to 145 | O=C(c1ccc([N+](=O)[O-])cc1Cl)N1CCCCc2ncccc21
60 | 201 to 202 | CCOC(=O)c1cn(-c2nonc2C)c2c(F)c(F)c(F)cc2c1=O
61 | 286 to 288 | CCn1cc(C(=O)O)c(=O)c2cc(F)c(-c3ccncc3)nc21
62 | 287 to 288 | O=C(O)C1=Cc2cc(Cl)cnc2NC1C(F)(F)F (configuration not stated)
63 | 113 to 114 | O=C(O)C1(c2ccco2)CC1
64 | 230 to 232 | Cc1c(Cc2cccnc2)sc2ccc(C(=O)O)cc12
65 | 88 to 90 | COc1ccc(SC)c2c1CC(=O)CC2
66 | 150 to 152 | CCOC(=O)c1ccc(NC(=O)C=C(C)c2ccc(Cl)cc2)cc1
67 | 204 | CNC(=O)c1ccccc1Nc1nc(Nc2cccc3c2C(=O)N(C)CCN3C)ncc1Cl
68 | 224 to 226 | CC(Br)C(=O)NS(=O)(=O)c1cccc2c1OC(C)(C)C2 (configuration not stated)
69 | 140 to 141 | C=Cc1cc(NC(=O)N2CCN(c3cc(OC)cc(OC)c3)CC2)c(OC)nc1C
70 | 97 to 100 | O=C1OC(O)c2c(F)cccc21 (configuration not stated)
71 | 33.5 to 35 | COC(=O)CCCCCCC1C(=O)Cc2cc(OC)ccc21 (configuration not stated)
72 | 102 to 105 | COc1ccc(C(=O)C2CCN(CCCO)CC2)cc1
73 | 100 to 111 | CC(C)(C)NS(=O)(=O)c1cccc2c1C(O)CCC2 (configuration not stated)
74 | 228 to 230 | COc1cc(F)ccc1C(F)C1CCCCn2c1nc(-c1ccncn1)cc2=O (racemic)
75 | 227 to 229 | COC(=O)c1cc(=O)c2c(C)cc(C)cc2[nH]1
76 | 114 to 115 | COc1ccc(C(=O)c2ccc(OCCc3nc(-c4ccccc4)oc3C)nc2)c(O)c1
77 | 171 to 172 | CCC1=C(C(=O)O)C(C(F)(F)F)Oc2ccc(Cl)cc21 (configuration not stated)
78 | 232 to 234 | O=C(Nc1ccccc1)c1ccc2c(c1)N(C1CC1)CNS2(=O)=O

Row | melting point [°C] | Structure (SMILES)
79 | 110 to 120 | CN1Cc2[nH]c3ccccc3c2C1
80 | 217 to 229 | CCNC(=O)c1nc2cc(NC(=O)c3c(C(=O)N4CCC4)cnn3C)ccn2n1
81 | 100 to 103 | CN(C)C(=O)c1cccnc1C(=O)c1cccc(C(F)(F)F)c1
82 | 149 | Cc1cccc(Oc2cccc(NC(=O)c3ccn4c3CSC4c3cccnc3)c2)c1 (configuration not stated)
83 | 161 to 164 | CNc1cc(Oc2ccc(NC(=O)Nc3ccc(Br)c(C(F)(F)F)c3)cc2)ncn1
84 | 215 to 217 | CC(=O)c1ccccc1Nc1nc(Nc2ccc3c(c2)CCCC(=O)N3C)ncc1Cl
85 | 138 to 142 | Cc1ccc(C(=O)N(C)C)cc1-c1nc(NCCN(C)C)nc2c1CNC(=O)N2c1c(F)cccc1F
86 | 81 to 82 | CCOC(=O)C(=C1CCCN1C)c1ccc(OC)cc1
87 | 167 to 170 | COc1ccc(C(=O)O)cc1C#CCN(C)C
88 | 202 | CNc1ncnc2c1ncn2C1OC(CO)C(O)C1O (configuration not stated)
89 | 175 to 176 | O=C(NC1CCC1)c1ccc2nonc2c1
90 | 156 to 158 | CN(C)Cc1ccc(CSCCNC2=NS(=O)(=O)N=C2N)o1
91 | 72 to 74 | COC(=O)c1cncc(SCc2ccc(OC)cc2)c1
92 | > 250 | CCOC(=O)c1cnc2nc(C)c(OCC)cc2c1Cl
93 | 171 to 172 | COc1cc(C(=O)Nc2cc(C(=O)c3ccccc3)ccc2N2CCOCC2)cc(OC)c1OC
94 | 85 to 88 | O=C1CC2C(OCc3ccc(Br)cc3)CC(O1)C2N1CCCCC1 (single isomer, unassigned; (-))
95 | 172 to 174 | NCCCC(=O)N1CCC(c2[nH]nc3c2C(=O)c2c(NC(=O)NN4CCOCC4)cccc2-3)CC1
96 | 164 to 165 | Cc1cccnc1C1CC(C)(C)Oc2ccc([N+](=O)[O-])cc21 (configuration not stated)
97 | 121 to 122 | COc1ccc(CCC2OC(=O)NC2=O)cc1O (configuration not stated)
